Assay results: patent US8741871B2, “Trehalose compound, method for producing same, and pharmaceutical product containing the compound” (priority 2008, dated 2014)

Legend:
[1] = test system: Welch bacillus (Type A; NTCT8237); type: in vivo
Procedure: As test compounds, 1 mg each of the compound synthesized by the method described in Production Example α-1 and TDCM were weighed. Emulsion solutions of the test compounds (1 mg/ml) were prepared in the same manner as described above.
[…] of Brain Heart Infusion (BHI) (Difco) powders were dissolved in 200 ml of distilled water. 40 ml of the obtained solution (hereinafter this solution is referred to as a “BHI medium”) was withdrawn with a measuring pipette, and it was then added to a 200-ml flask, followed by performing a high-pressure steam sterilization (121° C., 20 minutes). In addition, 5 ml of the BHI medium was added to two screw-top test tubes, and they were then subjected to a high-pressure steam sterilization. Moreover, a glass tube-equipped rubber plug (with a cotton plug) and a glass tube were also subjected to a high-pressure steam sterilization. In a clean bench, an appropriate amount of bacteria for preservation, which had grown on a cooked meat medium, was collected with a sterilized Pasteur pipette, and it was then inoculated on the BHI medium in the aforementioned sterilized screw-top test tube. Subsequently, it was incubated at 37° C. overnight.
In a clean bench, bacteria that had grown in the screw-top test tube (wherein the inside of the […] in which bacteria had grown became clouded, and gas was generated) was transferred into a 200-ml Erlenmeyer flask, which contained 40 ml of BHI medium. A glass tube was inserted into the medium, so as to carry out nitrogen substitution for 10 minutes. Subsequently, the glass tube-equipped rubber plug (with a cotton plug) was equipped in the Erlenmeyer flask (since Welch bacillus generates gas, it is necessary to make an air vent), and incubation was then carried out at 37° C. for 4 to 5 hours. Thereafter, the cultured Welch bacillus was transferred into a centrifuge tube, it was then centrifuged (9000 rpm, 15 minutes), and the supernatant was then removed. 20 ml of sterilized normal saline solution was added to the precipitate, so that the bacteria were suspended therein. The suspension was centrifuged (9000 rpm, 15 minutes), and the supernatant was then removed.
Mice (ICR, 6-week-old) were divided into three groups, and the following test was then carried out.
An emulsion solution containing the test compound, an emulsion solution containing TDCM, or an emulsion solution alone, which was to be used as a control, was intraperitoneally administered in an amount of 100 μg/mouse to a group of four mice (100 μl/mouse, in the case of the emulsion solution alone). Three hours later, Welch bacillus (2.4×10^7 cells/mouse) was intraperitoneally administered to the mice. Thereafter, the condition of the mice was observed.

[2] = test system: mouse intraperitoneal macrophages; test: Measurement of phagocytic ability of mouse intraperitoneal macrophages (fluorescent beads); type: cell-based; conditions: 50 μM test compound, 2 hours, FIG. 2
Procedure: Mouse intraperitoneal macrophages, a 40 mM test compound solution, and an RPMI1640 medium were prepared in the same manner as described above.
In the following experiment, Fluoresbrite (trademark) Carboxylate Microspheres (2.58% Solids-Latex) YG (Polysciences, Inc.) were used as fluorescent beads.
Macrophages were added to a TC-Plate (TC-PLATE 24 WELL, STERILE WITH LID, IND PACKED, greiner bio-one), so that they became 80% confluent. The macrophages were incubated at 37° C. for 2 hours. Thereafter, the supernatant was discarded, and the cells were then washed with 500 μl of RPMI 1640 medium two times. Each composition shown in Table 3 below was added to the TC-Plate, and it was then incubated at 37° C. for 2 hours. Thereafter, the supernatant was discarded, and the cells were then washed with 300 μl of sterilized PBS (−). In order to remove fluorescent beads that had not been incorporated into the cells, the aforementioned washing operation was repeatedly carried out two times. Macrophages were peeled off with 200 μl of sterilized PBS (−), and were then transferred into an Eppendorf tube. The macrophages were centrifuged at 1,500 rpm for 8 minutes. […]
Using FUJI FILM FLA-2000, the amount of fluorescent beads incorporated into the cells was measured [fluorescence intensity (Fluor 473 nm, Y520 Filter)]. For analysis, Image Reader V1.4J was used.

[3] = test system: Welch bacillus (C. perfringens Type-A NCTC8237); type: in vivo; conditions: pre-administration 100 μg/mouse i.p., twenty-four hours later 5.0×10^7 CFU/mL Welch bacillus i.p.; FIG. 16

SMILES	Number of surviving mice/number of treated mice, 2 hours later ([1]; 100 μg/mouse i.p. three hours before Welch bacillus 2.4×10^7 cells/mouse i.p., 2 hours later)	Number of surviving mice/number of treated mice, 6 hours later ([1]; 100 μg/mouse i.p. three hours before Welch bacillus 2.4×10^7 cells/mouse i.p., 6 hours later)	Number of surviving mice/number of treated mice, 12 hours later ([1]; 100 μg/mouse i.p. three hours before Welch bacillus 2.4×10^7 cells/mouse i.p., 12 hours later)	Number of surviving mice/number of treated mice, 24 hours later ([1]; 100 μg/mouse i.p. three hours before Welch bacillus 2.4×10^7 cells/mouse i.p., 24 hours later)	Number of surviving mice/number of treated mice, 48 hours later ([1]; 100 μg/mouse i.p. three hours before Welch bacillus 2.4×10^7 cells/mouse i.p., 48 hours later)	mice that escaped death in Welch bacillus lethal models ([1]; 100 μg/mouse i.p., text summary of Table 4)	action to activate the phagocytosis of mouse intraperitoneal macrophages, compared with TDCM [2]	lethality of Welch bacillus-infected mice [3]
CCCCCCCCCCC(CCCCCCCCCC)C(=O)OCC1O[C@H](O[C@H]2OC(COC(=O)C(CCCCCCCCCC)CCCCCCCCCC)[C@@H](O)C(O)C2O)C(O)C(O)[C@@H]1O (stereo partly drawn) [Example 1, 6,6′-bis-O-(2-decyldodecanoyl)-α,α′-trehalose]	4/4	4/4	4/4	3/4	3/4	three out of the four mice	approximately two times higher than the activity of TDCM	
CCCCCCCCCC(CCCCCCCCC)CC(=O)OCC1O[C@H](O[C@H]2OC(COC(=O)CC(CCCCCCCCC)CCCCCCCCC)[C@@H](O)C(O)C2O)C(O)C(O)[C@@H]1O (stereo partly drawn) [Example 9, 6,6′-bis-O-(3-nonyldodecanoyl)-α,α′-trehalose]							approximately two times higher than the activity of TDCM	significantly suppressed
